Test systems include HL-60(TB) leukemia; SK-OV-3 ovarian; 786-0 renal; BT-549 breast; DU-145 prostate; RXF 393 renal; NCI-H460 lung; SR leukemia; SF-539 CNS; A498 renal; SK-MEL-5 melanoma; OVCAR-3 ovarian; EKVX NSCLC; HOP-62 NSCLC; SW-620 colon; MDA-N.
Common to all, as to assay: growth of human tumour cells (NCI), 48 h

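Briefly, cells in 96-well plates were exposed to five compound concentrations for 48 h, and endpoints were estimated by linear interpolation. TGI denotes the concentration required for complete inhibition of growth.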

For `C/C(=C\COP(=O)(O)OP(=O)(O)O)CCCCCCOCc1ccccc1`, the TGI with HL-60(TB) leukemia, in the assay on SK-OV-3 ovarian, with 786-0 renal, in the assay on BT-549 breast, in the assay with DU-145 prostate and in the assay on RXF 393 renal was more than 100 µM throughout. Further, the TGI in the assay on NCI-H460 lung, in the assay with SR leukemia, in the assay on SF-539 CNS, in the assay with A498 renal, with SK-MEL-5 melanoma and in the assay on OVCAR-3 ovarian was more than 100 µM throughout. Also, the TGI in the assay with EKVX NSCLC, in the assay with HOP-62 NSCLC and with SW-620 colon was more than 100 µM each time.

In the case of `CC(O)CNC(=O)Nc1c(C(F)(F)F)cc(-c2ccccc2)[nH]c1=O` (stereo not drawn), the TGI was 1.54 µM in the assay on HL-60(TB) leukemia; more than 100 µM with SK-OV-3 ovarian; more than 100 µM in the assay on 786-0 renal; more than 100 µM with BT-549 breast; more than 100 µM in the assay on DU-145 prostate; more than 100 µM in the assay with RXF 393 renal. In addition, the TGI in the assay on NCI-H460 lung, in the assay with A498 renal, in the assay on SK-MEL-5 melanoma, in the assay with OVCAR-3 ovarian, in the assay with EKVX NSCLC and in the assay with HOP-62 NSCLC was more than 100 µM throughout. This molecule gave a TGI with SW-620 colon of more than 100 µM.

For `CC(=O)OCC1OC(n2c(C)c(C(C)=O)c(-c3ccco3)c(C#N)c2=S)C(OC(C)=O)C(OC(C)=O)C1OC(C)=O` (stereo not drawn), the TGI in the assay with HL-60(TB) leukemia, in the assay on SK-OV-3 ovarian, in the assay with 786-0 renal, in the assay on DU-145 prostate, in the assay on RXF 393 renal and with NCI-H460 lung was more than 100 µM in each case. The TGI in the assay with SR leukemia, with SF-539 CNS, with A498 renal, in the assay on SK-MEL-5 melanoma, in the assay with MDA-N and in the assay on OVCAR-3 ovarian was more than 100 µM each time. The TGI in the assay with EKVX NSCLC, with HOP-62 NSCLC and with SW-620 colon was more than 100 µM each time.

Regarding `CNc1cc([N+](=O)[O-])ccc1C(=O)N1CCC[C@H]1CO`, the TGI in the assay with HL-60(TB) leukemia, in the assay on SK-OV-3 ovarian, in the assay with 786-0 renal, in the assay with DU-145 prostate, with NCI-H460 lung and with SR leukemia was more than 100 µM each time. Further, the TGI in the assay on SF-539 CNS, in the assay with A498 renal, in the assay on MDA-N, in the assay on OVCAR-3 ovarian, with EKVX NSCLC and in the assay on HOP-62 NSCLC was more than 100 µM throughout. Moreover, in the assay on SW-620 colon, the TGI was more than 100 µM.

Take `C=C(C)[C@H]1CC[C@@]23O[C@@H]2[C@@H](C[C@@]2(C)CC(=O)[C@H](CC(=O)C1)O2)OC(=O)[C@@]12CC[C@H](C(=C)C)CC(=O)C[C@H]4O[C@](C)(CC4=O)C[C@@H](OC3=O)[C@@H]1O2`: the TGI in the assay with HL-60(TB) leukemia, in the assay on SK-OV-3 ovarian, in the assay with 786-0 renal, in the assay with DU-145 prostate, with RXF 393 renal and in the assay with SF-539 CNS was more than 100 µM throughout. Also, the TGI with A498 renal, in the assay on SK-MEL-5 melanoma, in the assay with MDA-N, in the assay on OVCAR-3 ovarian, in the assay with EKVX NSCLC and in the assay with HOP-62 NSCLC was more than 100 µM in each case.

Turning to `CCOC(=O)CN1C(=O)NC(C)(c2ccccc2)C1=O` (stereo not drawn), the TGI with SK-OV-3 ovarian, in the assay on 786-0 renal, with BT-549 breast, in the assay on DU-145 prostate, with RXF 393 renal and in the assay on SF-539 CNS was more than 100 µM in each case. For the same molecule, the TGI in the assay with A498 renal, with SK-MEL-5 melanoma, in the assay with OVCAR-3 ovarian, in the assay with EKVX NSCLC, with HOP-62 NSCLC and in the assay on SW-620 colon was more than 100 µM throughout.

For `C=C1CN=C(Nc2ccc(Cl)cc2)S1`, the TGI was more than 10 µM in the assay with HL-60(TB) leukemia; more than 100 µM in the assay on SK-OV-3 ovarian; more than 100 µM in the assay with 786-0 renal; more than 100 µM in the assay on DU-145 prostate; more than 100 µM with NCI-H460 lung; more than 100 µM with SR leukemia. Moreover, the TGI in the assay with SF-539 CNS, in the assay with A498 renal, with SK-MEL-5 melanoma, with MDA-N, in the assay with OVCAR-3 ovarian and in the assay on EKVX NSCLC was more than 100 µM throughout. Moreover, the TGI in the assay on HOP-62 NSCLC and with SW-620 colon was more than 100 µM each time.

As for `COCn1cc(C2=C(C)C(=O)C(C)=C(C)C2=O)cn1`, the TGI is 24.3 µM in the assay on HL-60(TB) leukemia; 32.2 µM with 786-0 renal; more than 100 µM in the assay on DU-145 prostate; more than 100 µM in the assay on RXF 393 renal; more than 100 µM with NCI-H460 lung; 65.9 µM in the assay with SR leukemia. Further, the TGI in the assay with SF-539 CNS is more than 100 µM; with A498 renal it was more than 100 µM; in the assay on SK-MEL-5 melanoma it was more than 100 µM; with MDA-N, more than 100 µM; in the assay with OVCAR-3 ovarian, 40 µM; in the assay with EKVX NSCLC, 32.5 µM. Also, the TGI in the assay with HOP-62 NSCLC and with SW-620 colon was more than 100 µM throughout.

On to `Cn1c(=O)c2ccccc2[n+]2c(-c3cccc([N+](=O)[O-])c3)csc12`, for which the TGI in the assay on HL-60(TB) leukemia was 62.8 µM; with SK-OV-3 ovarian, more than 100 µM; in the assay with 786-0 renal, more than 100 µM; in the assay on DU-145 prostate, more than 100 µM; in the assay with RXF 393 renal, more than 100 µM; in the assay on NCI-H460 lung it was more than 100 µM. The TGI with SR leukemia was 71.5 µM; in the assay with SF-539 CNS it was more than 100 µM; in the assay on A498 renal, more than 100 µM; in the assay with SK-MEL-5 melanoma, more than 100 µM; in the assay with MDA-N it was more than 100 µM; in the assay with OVCAR-3 ovarian, more than 100 µM. Moreover, the TGI in the assay on EKVX NSCLC, in the assay with HOP-62 NSCLC and in the assay with SW-620 colon was more than 100 µM in each case.

These data come from PubChem BioAssay (NCI).
